Measured values published in patent US20090143452A1, “Use of prochloraz for wood protection” (priority 2005, published 2009).
Entries after “also recorded” stand apart in the source; their conditions may differ.

Assays:
soft-rot fungi = test: Activity against soft rot, test based on ENV 807 (reduction in mass of treated Pinus sylvestris wood samples); details: for Activity against soft-rot fungi in the test according to ENV 807 (in words): 0.3% active compound where stated; for Reduction in mass in % (mean): Pinus sylvestris specimens vacuum drenched with 0.3% active compound solution, ageing per EN 84, 20 weeks incubation
Experimental: The activity of prochloraz and of a copper/chromate preparation and tebuconazole, 3-iodo-2-propynyl butylcarbarbamate (IPBC) and imazalil was determined in a test based on ENV 807 (12/2001). To this end, test specimens of the wood type Pinus sylvestris of a size of 40×15×4 mm were vacuum drenched with 0.3 and 0.4% strength active compound solutions and conditioned for 14 days. This was followed by accelerated ageing according to EN 84.
Subsequently, the wood samples were placed on a malt agar medium according to EN 113 and inoculated with a spore suspension according to ENV 807. After 20 weeks of incubation, the reduction in mass of the wood samples treated was determined.

blueing fungi = details: J. A. Drysdale et al., New Zealand Journal of Forestry Science 1982; cited from earlier work

SMILES	Activity against soft-rot fungi in the test according to ENV 807 (in words) (soft-rot fungi)	Reduction in mass in % (mean) (soft-rot fungi)	Activity against soft-rot fungi in the test according to ENV 807 (in words) (soft-rot fungi; listed as prochloraz)	Activity against blueing fungi (in words) (blueing fungi)
CCCCNC(=O)OCC#CI [IPBC, 3-iodo-2-propynyl butylcarbarbamate]	entirely insufficient activity; also recorded: insufficiently active	>4%	–	–
C=CCOC(Cn1ccnc1)c1ccc(Cl)cc1Cl (stereo not shown) [Imazalil, imazalil]	entirely insufficient activity; also recorded: insufficiently active	>4%	–	–
CCCN(CCOc1c(Cl)cc(Cl)cc1Cl)C(=O)n1ccnc1 [Prochloraz, N-propyl-N-[2-(2,4,6-trichlorophenoxy)ethyl]imidazole-1-carboxamide]	broad activity	<2%	excellent activity; also recorded: effect comparable to that of the 0.4% strength copper/chromium standard	insufficiently active
CC(C)(C)C(O)(CCc1ccc(Cl)cc1)Cn1cncn1 (stereo not shown) [Tebuconazole, tebuconazole]	insufficiently active	>4%	–	–
